From US20070122471A1, “Method of improving suitability for granulation” (Takeda Pharmaceutical Company Limited, priority 2003, published 2007)

Assay: Wettability to binder: contact angle of binder liquid on molded product
Format: physicochemical
Details: for Contact angle with respect to molded product: immediately after dropping about 10 μL
Excerpt: The bulk molded product of Compound X used in Example 1, and Compound X, lactose and crystalline cellulose in Table 1 (this mixture being referred to as a granulation component) were examined on the effect of the surfactant on the wettability to a binder (10% PVP) solution for the molded product. As a binding liquid, a solution of a binder alone (A), a solution of binder+a 1% polysorbate 80 (B), and a solution of a binder+1% sodium lauryl sulfate (C) were used, and contact angle thereof were measured by using the following method.
About 300 mg of the bulk or the granulation component was weighed, and compression molded using a plain mortar and pestle of 10.0 mmφ by an autograph (manufactured by Shimadzu Co.) under the conditions of a tableting pressure of 10 kN/pestle and a tableting speed of 10 mm/min, thus to obtain a bulk molded product or a molded product of the granulation components. Onto the flat portion of each of the molded products, about 10 μL of the above-described binder liquid was dropped using a Microsyringe (manufactured by ITO SEISAKUSHO CO., LTD.), and the solid and liquid interface immediately after dropping was photographed by a digital microscope (Keyence). After photographing, using an accompanying software, the angle between the liquid surface and the solid surface was measured and referred to as an […].

Contact angle with respect to molded product (binder liquid (A): binder (10% PVP) alone): 56 °
Contact angle with respect to molded product (binder liquid (B): binder (10% PVP) + 1% polysorbate 80): 33 °
Contact angle with respect to molded product (binder liquid (C): binder (10% PVP) + 1% sodium lauryl sulfate): 28 °
Wettability to the binder liquid (surfactant incorporated into the binder liquid): remarkably improved
SMILES: COc1cccc([C@H]2O[C@H](CC(=O)Nc3cccc(CCC(=O)O)c3)C(=O)N(CC(C)(C)CO)c3ccc(Cl)cc32)c1OC [Compound X, 3-[3-[[(3R,5S)-7-chloro-5-(2,3-dimethoxyphenyl)-1-(3-hydroxy-2,2-dimethylpropyl)-2-oxo-1,2,3,5-tetrahydro-4,1-benzoxazepine-3-yl]acetyl]aminophenyl]propionic acid]
